Literature values, collected in US10329321B2, “Site-selective functionalization of proteins using traceless affinity labels” (priority 2016, dated 2019).

Assays:
[1] = imidazole ring of histidine or its fluorinated replacement
[2] = biological target: nucleotide binding pocket (NBP) in immunoglobulin Fab arms; conditions: binding affinity dependent on the antibody

pKa [1]	Kd [2]	Compound
~1.22	–	Fc1ncc[nH]1 [2-fluoro-imidazole]
~1.76	–	Fc1c[nH]cn1 [4-fluoro-imidazole]
~6	–	N[C@@H](Cc1c[nH]cn1)C(=O)O [histidine]
–	1 to 8 µM	O=C(O)CCCc1c[nH]c2ccccc12 [indole-3-butryic acid, 4-(3-indolyl)butyric acid]
